Here are results for 21 molecules from patent US9629363B2, “Pesticidal compositions and processes related thereto” (Dow AgroSciences LLC, priority 2012, dated 2017).

The subject of experiment [1] is Beet Armyworm (BAW) (Spodoptera exigua). The experiment in a line: Bioassay on beet armyworm (BAW), 128-well diet tray assay. It is filed as in vivo. Conditions: for BAW Rating: percent mortality of second instar larvae, 50 μg/cm^2 on artificial diet, five to seven days, 25° C.; for pest or weed control at 50 µg/cm2: Spodoptera exigua, Table 3B, beet armyworm, 128-well diet tray assay, read-out: BAW Rating. As to the method: (§1) Certain molecules disclosed in this document were tested against BAW and CEW and CL using procedures described in the following examples. In the reporting of the results, the “BAW & CEW & CL Rating Table” was used (See Table Section).
Bioassays on BAW were conducted using a 128-well diet tray assay. one to five second instar BAW larvae were placed in each well (3 mL) of the diet tray that had been previously filled with 1 mL of artificial diet to which 50 μg/cm^2 of the test compound (dissolved in 50 μL of 90:10 acetone-water mixture) had been applied (to each of eight wells) and then allowed to dry. Trays were covered with a clear self-adhesive cover, and held at 25° C., 14:10 light-dark for five to seven days. Percent mortality was recorded for the larvae in each well; activity in the eight wells was then averaged. The results are indicated in the table entitled “Table 3: Assay Results” (See Table Section).

The test system of experiment [2] is Cabbage Looper (CL) (Trichoplusia ni). The experiment is described as follows: Bioassay on cabbage looper (CL), 128-well diet tray assay. The class given is in vivo. Conditions: Table 3B, read-out: CL Rating. As to the method:
as §1
Bioassays on CL were conducted using a 128-well diet tray assay. One to five second instar CL larvae were placed in each well (3 mL) of the diet tray that had been previously filled with 1 mL of artificial diet to which 50 μg/cm^2 of the test compound (dissolved in 50 μL of 90:10 acetone-water mixture) had been applied (to each of eight wells) and then allowed to dry. Trays were covered with a clear self-adhesive cover, and held at 25° C., 14:10 light-dark for five to seven days. Percent mortality was recorded for the larvae in each well; activity in the eight wells was then averaged. The results are indicated in the table entitled “Table 3A: Assay Results” (See Table Section).

`N#CCN1CCC(NC(=O)c2ccc(/C=C/C(c3cc(Cl)c(Cl)c(Cl)c3)C(F)(F)F)cc2Br)CC1` (stereo not drawn) [AC107]: the “BAW Rating” value in experiment [1] is listed as “B (More than 0-Less than 50)”.
The same measure, in the same setting: then `O=C(NC1CCN(C2COC2)CC1)c1ccc(/C=C/C(c2cc(Cl)c(Cl)c(Cl)c2)C(F)(F)F)cc1Br` (stereo not drawn) [AC108, (E)-2-Bromo-N-(1-(oxetan-3-yl)piperidin-4-yl)-4-(4,4,4-trifluoro-3-(3,4,5-trichlorophenyl)but-1-en-1-yl)benzamide], with “B (More than 0-Less than 50)”.
As to `O=C(NCCc1ccc(Cl)nc1)c1ccc(/C=C/C(c2cc(Cl)c(Cl)c(Cl)c2)C(F)(F)F)cc1Br` (stereo not drawn) [AC113], the “BAW Rating” value in experiment [1] is reported as “B (More than 0-Less than 50)”.
Turning to `CCNC(=O)NCc1ccc(/C=C/C(c2cc(Cl)cc(Cl)c2)C(F)(F)F)cc1Cl` (stereo not drawn) [CC31, (E)-1-(2-Chloro-4-(3-(3,5-dichlorophenyl)-4,4,4-trifluorobut-1-en-1-yl)benzyl)-3-ethylurea], the “BAW Rating” value in experiment [1] is “B (More than 0-Less than 50)”.
Take `FC(F)(F)C(/C=C/c1ccc(-n2cncn2)cc1)c1ccccc1` (stereo not drawn) [DC3]: in experiment [1], the “BAW Rating” value is “B (More than 0-Less than 50)”.
With `CN(NC(=O)c1ccc(/C=C/C(c2cc(Cl)c(Cl)c(Cl)c2)C(F)(F)F)cc1Br)C(=O)CCC(F)(F)F` (stereo not drawn) [FA1], the pest or weed control at 50 µg/cm2 in experiment [1] and in experiment [2] was 50 to 100% each time.
As to `CN(NC(=O)c1ccc(/C=C/C(c2cc(Cl)c(Cl)c(Cl)c2)C(F)(F)F)cc1Br)C(=O)CC(F)(F)F` (stereo not drawn) [FA2], the pest or weed control at 50 µg/cm2 in experiment [1] and in experiment [2] was 50 to 100% throughout.
On to `CN(NC(=O)c1ccc(/C=C/C(c2cc(Cl)c(Cl)c(Cl)c2)C(F)(F)F)cc1C(F)(F)F)C(=O)C1CC1` (stereo not drawn) [FA3], for which the pest or weed control at 50 µg/cm2 in experiment [1] and in experiment [2] was 50 to 100% throughout.
For `CCC(=O)N(C)NC(=O)c1ccc(/C=C/C(c2cc(Cl)c(Cl)c(Cl)c2)C(F)(F)F)cc1C` (stereo not drawn) [FA4], the pest or weed control at 50 µg/cm2 in experiment [1] and in experiment [2] was 50 to 100% each time.
As for `Cc1cc(/C=C/C(c2cc(Cl)c(Cl)c(Cl)c2)C(F)(F)F)ccc1C(=O)NN(C)C(=O)C1CC1` (stereo not drawn) [FA5], the pest or weed control at 50 µg/cm2 in experiment [1] and in experiment [2] was 50 to 100% throughout.
Take `Cc1cc(/C=C/C(c2cc(Cl)c(Cl)c(Cl)c2)C(F)(F)F)ccc1C(=O)NN(C)C(=O)CCC(F)(F)F` (stereo not drawn) [FA6]: the pest or weed control at 50 µg/cm2 in experiment [1] and in experiment [2] was 50 to 100% each time.
Regarding `O=C(CC(F)(F)F)NCCNC(=O)c1ccc(/C=C/C(c2cc(Cl)c(Cl)c(Cl)c2)C(F)(F)F)cc1C(F)(F)F` (stereo not drawn) [FA7], the pest or weed control at 50 µg/cm2 in experiment [1] and in experiment [2] was 50 to 100% in each case.
Turning to `CC(C)(CNC(=O)c1ccc(/C=C/C(c2cc(Cl)c(Cl)c(Cl)c2)C(F)(F)F)cc1C(F)(F)F)NC(=O)CC(F)(F)F` (stereo not drawn) [FA8], the pest or weed control at 50 µg/cm2 in experiment [1] and in experiment [2] was 50 to 100% each time.
Consider `CC(C)(CNC(=O)c1ccc(/C=C/C(c2cc(Cl)c(Cl)c(Cl)c2)C(F)(F)F)cc1C(F)(F)F)NC(=O)C(F)(F)F` (stereo not drawn) [FA9], for which, in experiment [2], the pest or weed control at 50 µg/cm2 was 0 to 50%.
Turning to `O=C(NCCNC(=O)C(F)(F)F)c1ccc(/C=C/C(c2cc(Cl)c(Cl)c(Cl)c2)C(F)(F)F)cc1C(F)(F)F` (stereo not drawn) [FA10], the pest or weed control at 50 µg/cm2 in experiment [1] and in experiment [2] was 50 to 100% throughout.
`CN(NC(=O)c1ccc(/C=C/C(c2cc(Cl)c(Cl)c(Cl)c2)C(F)(F)F)cc1C(F)(F)F)C(=O)C(F)(F)C(F)(F)C(F)(F)F` (stereo not drawn) [FA11]: the pest or weed control at 50 µg/cm2 in experiment [1] and in experiment [2] was 50 to 100% in each case.
For `CCCC(=O)N(C)NC(=O)c1ccc(/C=C/C(c2cc(Cl)c(Cl)c(Cl)c2)C(F)(F)F)cc1C(F)(F)F` (stereo not drawn) [FA12], the pest or weed control at 50 µg/cm2 in experiment [1] and in experiment [2] was 50 to 100% in each case.
For the molecule `CN(NC(=O)c1ccc(/C=C/C(c2cc(Cl)c(Cl)c(Cl)c2)C(F)(F)F)cc1C(F)(F)F)C(=O)CCC(F)(F)F` (stereo not drawn) [FA13], the pest or weed control at 50 µg/cm2 in experiment [1] and in experiment [2] was 50 to 100% throughout.
`O=C(CCC(F)(F)F)NNC(=O)c1ccc(/C=C/C(c2cc(Cl)c(Cl)c(Cl)c2)C(F)(F)F)cc1C(F)(F)F` (stereo not drawn) [FA14]: the pest or weed control at 50 µg/cm2 in experiment [1] and in experiment [2] was 50 to 100% each time.
For the molecule `CC(C)(CNC(=O)C(F)(F)F)NC(=O)c1ccc(/C=C/C(c2cc(Cl)c(Cl)c(Cl)c2)C(F)(F)F)cc1C(F)(F)F` (stereo not drawn) [FA15], the pest or weed control at 50 µg/cm2 in experiment [1] and in experiment [2] was 50 to 100% throughout.
For the molecule `CC(C)(CNC(=O)CC(F)(F)F)NC(=O)c1ccc(/C=C/C(c2cc(Cl)c(Cl)c(Cl)c2)C(F)(F)F)cc1C(F)(F)F` (stereo not drawn) [FA16], the pest or weed control at 50 µg/cm2 in experiment [1] and in experiment [2] was 50 to 100% each time.
